Data reported in publication PMC10619135, “Virtual screening, identification and in vitro validation of small molecule GDP-mannose dehydrogenase inhibitors” (RSC Chemical Biology, 2023).

Tests used:
[1] = molecular target: T1, GDP-mannose dehydrogenase (GMD) (Pseudomonas aeruginosa, UniProt P11759); experiment: NADH fluorescence assay, dilution series; format: biochemical
T1 construct: gene algD; recombinant GMD

[2] = molecular target: T1, GDP-mannose dehydrogenase (GMD); experiment: intact protein ESI-MS; format: binding; details: covalent; overnight incubation; single adduct; site Lys324 only predicted by docking

T1 sequence (P11759 whole entry): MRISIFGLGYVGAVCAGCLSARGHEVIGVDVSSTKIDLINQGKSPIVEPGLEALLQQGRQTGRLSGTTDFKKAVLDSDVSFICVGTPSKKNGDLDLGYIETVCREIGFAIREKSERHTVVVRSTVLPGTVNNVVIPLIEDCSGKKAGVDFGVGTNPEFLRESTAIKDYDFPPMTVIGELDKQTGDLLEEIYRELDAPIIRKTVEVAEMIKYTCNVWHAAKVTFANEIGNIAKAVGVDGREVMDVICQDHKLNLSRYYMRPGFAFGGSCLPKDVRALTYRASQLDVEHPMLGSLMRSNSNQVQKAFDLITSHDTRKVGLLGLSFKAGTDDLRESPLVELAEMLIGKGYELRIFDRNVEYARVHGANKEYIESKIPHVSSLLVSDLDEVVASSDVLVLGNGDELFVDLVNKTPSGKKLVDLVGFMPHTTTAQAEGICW

Structure (SMILES): CC(=O)C1=C(O)C=C2Oc3c4c(c(C)c(O)c3[C@@]2(C)C1=O)O/C(=C\c1ccc(O)cc1)C4=O [compound 13, 13]
- IC50 [1]: 16.7 ± 2.12 µM
- intact protein ESI-MS [2]: ESI-MS indicated clear evidence of a single GMD-13 adduct
